Data as given in patent US10189816B2, “Substituted pyridines as inhibitors of human immunodeficiency virus replication” (priority 2015, dated 2019).

The compounds below were run on NL-RLuc virus (assay: Inhibition of HIV replication (NL-RLuc reporter virus in MT-2 cells, luciferase readout)). Conditions: Human immunodeficiency virus 1, MT2, 120 h, read-out: Activity.
Assay type: cell-based
Procedure, shortened: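 Antiviral EC50 came from luciferase signal after 5-day multicycle replication of NL-RLuc virus in MT-2 cells with serially diluted compound (RPMI 1640, 10% heat-inactivated FBS), fitted by the median effect equation over at least 2 experiments.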
In the case of `Cc1ccc(F)c(CN2CCc3cc(-c4c(C)nc(C)c([C@H](OC(C)(C)C)C(=O)O)c4N4CCC(C)(C)CC4)ccc3C2)c1F` [Compound 48, (S)-2-(tert-butoxy)-2-(5-(2-(2,6-difluoro-3-methylbenzyl)-1,2,3,4-tetrahydroisoquinolin-6-yl)-4-(4,4-dimethylpiperidin-1-yl)-2,6-dimethylpyridin-3-yl)acetic acid], the EC50 is reported as < 0.1 µM.
With `CCOc1cccc(CN2CCc3cc(-c4c(C)nc(C)c([C@H](OC(C)(C)C)C(=O)O)c4N4CCC(C)(C)CC4)ccc3C2)c1` [Compound 103, (S)-2-(tert-butoxy)-2-(4-(4,4-dimethylpiperidin-1-yl)-5-(2-(3-ethoxybenzyl)-1,2,3,4-tetrahydroisoquinolin-6-yl)-2,6-dimethylpyridin-3-yl)acetic acid] the EC50 was < 0.1 µM.
`COc1cc(F)c(CN2CCc3cc(-c4c(C)nc(C)c([C@H](OC(C)(C)C)C(=O)O)c4N4CCC(C)(C)CC4)ccc3C2)cc1F` [Compound 83, (S)-2-(tert-butoxy)-2-(5-(2-(2,5-difluoro-4-methoxybenzyl)-1,2,3,4-tetrahydroisoquinolin-6-yl)-4-(4,4-dimethylpiperidin-1-yl)-2,6-dimethylpyridin-3-yl)acetic acid] was tested, and the EC50 was < 0.1 µM.
`Cc1nc(C)c([C@H](OC(C)(C)C)C(=O)O)c(N2CCC(C)(C)CC2)c1-c1ccc2c(c1)CCN(Cc1ccc3c(c1)OCCO3)C2` [Compound 156, (S)-2-(tert-butoxy)-2-(5-(2-((2,3-dihydrobenzo[b][1,4]dioxin-6-yl)methyl)-1,2,3,4-tetrahydroisoquinolin-6-yl)-4-(4,4-dimethylpiperidin-1-yl)-2,6-dimethylpyridin-3-yl)acetic acid] was tested, and the EC50 was < 0.1 µM.
With `Cc1nc(C)c([C@H](OC(C)(C)C)C(=O)O)c(N2CCC(C)(C)CC2)c1-c1ccc2c(c1)CCN(Cc1ccc(C#N)cc1)C2` [Compound 64, (S)-2-(tert-butoxy)-2-(5-(2-(4-cyanobenzyl)-1,2,3,4-tetrahydroisoquinolin-6-yl)-4-(4,4-dimethylpiperidin-1-yl)-2,6-dimethylpyridin-3-yl)acetic acid] the EC50 was < 0.1 µM.
With `COc1cc(C)c(CN2CCc3cc(-c4c(C)nc(C)c([C@H](OC(C)(C)C)C(=O)O)c4N4CCC(C)(C)CC4)ccc3C2)cc1C` [Compound 148, (S)-2-(tert-butoxy)-2-(4-(4,4-dimethylpiperidin-1-yl)-5-(2-(4-methoxy-2,5-dimethylbenzyl)-1,2,3,4-tetrahydroisoquinolin-6-yl)-2,6-dimethylpyridin-3-yl)acetic acid] the EC50 was < 0.1 µM.
For `Cc1nc(C)c([C@H](OC(C)(C)C)C(=O)O)c(N2CCC(C)(C)CC2)c1-c1ccc2c(c1)CCN(Cc1cccc(C(C)(C)C)c1)C2` [Compound 81, (S)-2-(tert-butoxy)-2-(5-(2-(3-(tert-butyl)benzyl)-1,2,3,4-tetrahydroisoquinolin-6-yl)-4-(4,4-dimethylpiperidin-1-yl)-2,6-dimethylpyridin-3-yl)acetic acid], the EC50 was < 0.1 µM.
For `COc1cc(F)cc(F)c1CN1CCc2cc(-c3c(C)nc(C)c([C@H](OC(C)(C)C)C(=O)O)c3N3CCC(C)(C)CC3)ccc2C1` [Compound 107, (S)-2-(tert-butoxy)-2-(5-(2-(2,4-difluoro-6-methoxybenzyl)-1,2,3,4-tetrahydroisoquinolin-6-yl)-4-(4,4-dimethylpiperidin-1-yl)-2,6-dimethylpyridin-3-yl)acetic acid], the EC50 was < 0.1 µM.
With `Cc1cc(CN2CCc3cc(-c4c(C)nc(C)c([C@H](OC(C)(C)C)C(=O)O)c4N4CCC(C)(C)CC4)ccc3C2)cc(C)c1F` [Compound 75, (S)-2-(tert-butoxy)-2-(4-(4,4-dimethylpiperidin-1-yl)-5-(2-(4-fluoro-3,5-dimethylbenzyl)-1,2,3,4-tetrahydroisoquinolin-6-yl)-2,6-dimethylpyridin-3-yl)acetic acid] the EC50 was < 0.1 µM.
In the case of `Cc1ccc(CN2CCc3cc(-c4c(C)nc(C)c([C@H](OC(C)(C)C)C(=O)O)c4N4CCC(C)(C)CC4)ccc3C2)cc1F` [Compound 18, (S)-2-(tert-butoxy)-2-(4-(4,4-dimethylpiperidin-1-yl)-5-(2-(3-fluoro-4-methylbenzyl)-1,2,3,4-tetrahydroisoquinolin-6-yl)-2,6-dimethylpyridin-3-yl)acetic acid], the EC50 is reported as < 0.1 µM.
In the case of `COc1cc(Cl)cc(CN2CCc3cc(-c4c(C)nc(C)c([C@H](OC(C)(C)C)C(=O)O)c4N4CCC(C)(C)CC4)ccc3C2)c1` [Compound 100, (S)-2-(tert-butoxy)-2-(5-(2-(3-chloro-5-methoxybenzyl)-1,2,3,4-tetrahydroisoquinolin-6-yl)-4-(4,4-dimethylpiperidin-1-yl)-2,6-dimethylpyridin-3-yl)acetic acid], the EC50 is reported as < 0.1 µM.
With `Cc1nc(C)c([C@H](OC(C)(C)C)C(=O)O)c(N2CCC(C)(C)CC2)c1-c1ccc2c(c1)CCN(Cc1ccc(F)c(C)c1C)C2` [Compound 72, (S)-2-(tert-butoxy)-2-(4-(4,4-dimethylpiperidin-1-yl)-5-(2-(4-fluoro-2,3-dimethylbenzyl)-1,2,3,4-tetrahydroisoquinolin-6-yl)-2,6-dimethylpyridin-3-yl)acetic acid] the EC50 was < 0.1 µM.
`Cc1cc(F)ccc1CN1CCc2cc(-c3c(C)nc(C)c([C@H](OC(C)(C)C)C(=O)O)c3N3CCC(C)(C)CC3)ccc2C1` [Compound 25, (S)-2-(tert-butoxy)-2-(4-(4,4-dimethylpiperidin-1-yl)-5-(2-(4-fluoro-2-methylbenzyl)-1,2,3,4-tetrahydroisoquinolin-6-yl)-2,6-dimethylpyridin-3-yl)acetic acid] was tested, and the EC50 was < 0.1 µM.

Same assay, conditions: Human immunodeficiency virus 1, MT2, 120 h, read-out: EC50 μM
In the case of `CCOc1cccc(CN2CCc3cc(-c4c(C)nc(C)c([C@H](OC(C)(C)C)C(=O)O)c4N4CCC(C)(C)CC4)ccc3C2)c1` [Compound 103, (S)-2-(tert-butoxy)-2-(4-(4,4-dimethylpiperidin-1-yl)-5-(2-(3-ethoxybenzyl)-1,2,3,4-tetrahydroisoquinolin-6-yl)-2,6-dimethylpyridin-3-yl)acetic acid], the EC50 is reported as 0.012 µM.
In the case of `Cc1nc(C)c([C@H](OC(C)(C)C)C(=O)O)c(N2CCC(C)(C)CC2)c1-c1ccc2c(c1)CCN(Cc1ccc3c(c1)OCCO3)C2` [Compound 156, (S)-2-(tert-butoxy)-2-(5-(2-((2,3-dihydrobenzo[b][1,4]dioxin-6-yl)methyl)-1,2,3,4-tetrahydroisoquinolin-6-yl)-4-(4,4-dimethylpiperidin-1-yl)-2,6-dimethylpyridin-3-yl)acetic acid], the EC50 is reported as 0.008 µM.
